IC50 data for one molecule are collected here from article PMC6945522, “Promoting tau secretion and propagation by hyperactive p300/CBP via autophagy-lysosomal pathway in tauopathy” (Molecular Neurodegeneration, 2020).

The target of the assay is T1, p300 (Homo sapiens, UniProt Q09472).
T1 construct: gene EP300; fragment of p300 (aa 1815–1910), including the PHD, catalytic (HAT), ZZ and TAZ2 domains
T1 sequence (Q09472 1815-1910): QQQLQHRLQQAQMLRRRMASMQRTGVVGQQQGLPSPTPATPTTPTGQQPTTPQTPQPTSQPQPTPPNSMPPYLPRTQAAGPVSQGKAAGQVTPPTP
In words: HTRF tau acetylation assay with purified p300 core domain; confirmed by orthogonal MMBC assay and DSF binding. The class given is biochemical. A general note: Time-resolved FRET reads energy transfer from a long-lived donor to a nearby acceptor.

The structures appear in SMILES notation.

As to `Cc1cc2c(c(=S)[nH]1)C(=O)O/C2=C\c1ccco1` [compound 37892, SMDC37892], the 50% inhibitory concentration (IC50) is 35.3 µM.

One may read the IC50 as the concentration needed to halve the response being measured. Low readings indicate higher potency, high ones lower potency.
